Experimental data taken from PubChem BioAssay (NCI).
Values joined by “and” are separate entries in the source; they are usually repeats but may differ in a detail not shown here. Identical values can stand only once.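 Compound exposure: 48 hours, 5 concentrations, 96-well plates. GI50: concentration for 50% inhibition of growth. TGI marks complete inhibition of growth.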

Assays:
Assay in all cases: DTP human tumour cell line panel, 48 h
[1] = tested on: ACHN renal
[2] = tested on: EKVX NSCLC
[3] = tested on: MDA-MB-231 breast
[4] = tested on: NCI-H23 lung
[5] = tested on: OVCAR-3 ovarian
[6] = tested on: OVCAR-5 ovarian
[7] = tested on: OVCAR-8 ovarian
[8] = tested on: SK-MEL-28 melanoma
[9] = tested on: SNB-19 CNS
[10] = tested on: UACC-62 melanoma

SMILES | GI50 [1] | TGI [1] | GI50 [2] [µM] | TGI [2] [µM] | GI50 [3] | TGI [3] | GI50 [4] | TGI [4] | GI50 [5] | TGI [5] | GI50 [6] | TGI [6] | GI50 [7] | TGI [7] | GI50 [8] | TGI [8] | GI50 [9] | TGI [9] | GI50 [10] | TGI [10]
COc1cc2c(cc1OC)-c1c(c3ccc([N+](=O)[O-])cc3c(=O)n1CCCN)C2=O | 0.242 µM | 4.04 µM | 7.75 | 18.3 | 0.521 µM | 1.54 µM | 0.548 µM | 1.55 µM | 8.42 µM | 18.4 µM | 3.46 µM | 9.54 µM | 1.01 µM | 4.49 µM | 7.25 µM | 15.3 µM | 0.944 µM | 5.9 µM | 1.95 µM | 10.8 µM
CC[C@@]1(O)C(=O)OCc2c1cc1n(c2=O)Cc2cc3c(NC(=O)CN)cccc3nc2-1 | – | 1.02 µM | – | > 100 | – | > 73 µM | – | 4.26 µM | – | 9.34 µM | – | 63.8 µM | – | > 43.8 µM | – | > 100 µM | – | > 100 µM | – | 7.42 µM
CCN1CCC(CC(=O)Nc2n[nH]c3nc(-c4cccs4)c(Br)cc23)CC1 | 7.96 µM | > 25 µM | > 25 | > 25 | 14.7 µM | > 25 µM | 20.1 µM | > 25 µM | 10.4 µM | > 25 µM | 15.9 µM | > 25 µM | 11.6 µM | > 25 µM | 5.31 µM | 9.85 µM | 17.4 µM | > 25 µM | 5.26 µM | 11 µM
O=C1CC/C(=C\COc2ccc3ccc(=O)oc3c2)O1 | 0.386 µM | 2.02 µM | 16.7 | 46.4 | 13.8 µM | 29.4 µM | 11.7 µM | 30 µM | 4.44 µM | 22 µM | 17.3 µM | 34.8 µM | 16.6 µM | 40.8 µM | 15.3 µM | 32.7 µM | 13.2 µM | 36.8 µM | 10.8 µM | 24.7 µM
O=C(/C=C\c1ccc2ccccc2n1)c1cc(Cl)ccc1O | 8.32 µM | 21.4 µM | 13.7 | 87.5 | 5.18 µM | 24.3 µM | 5.9 µM | 19.7 µM | 5.31 µM | 17.1 µM | 14.3 µM | 30.5 µM | 3.16 µM | 14.7 µM | 18.7 µM | 49.6 µM | 10.1 µM | 24.5 µM | 7.51 µM | 21 µM
C[C@@H]1COC(Nc2ccc3ncnc(Nc4ccc(OCc5nccs5)c(Cl)c4)c3c2)=N1 | 0.446 µM and 0.432 µM | > 10 µM and 16.6 µM | 0.252 | > 10 | 6.04 µM and 8.22 µM | > 10 µM and 27.2 µM | 8.41 µM and 8.45 µM | > 10 µM and 37 µM | 2.07 µM and 2.67 µM | > 10 µM and 14.2 µM | > 10 µM and 11.9 µM | > 10 µM and 33.3 µM | 2.97 µM and 2.65 µM | > 10 µM and 16.8 µM | 4.46 µM and 5.45 µM | > 10 µM and 18.9 µM | > 10 µM and 12.4 µM | > 10 µM and 32.4 µM | 6.14 µM and 3.39 µM | > 10 µM and 14.9 µM
NC(=O)NCCSC1CCCCC1O (centres undefined) | – | > 100 µM | – | > 100 | – | > 100 µM | – | > 100 µM | – | > 100 µM | – | > 100 µM | – | > 100 µM | – | > 100 µM | – | > 100 µM | – | > 100 µM
COc1ccc2c(c1)[C@@]1(C)CCC3c4ccc(O)cc4CCC3C1C2 (some centres undefined) | 15.9 µM | 29.8 µM | 17.6 | 33.2 | 13.8 µM | 27.8 µM | 16.8 µM | 30.8 µM | 14.7 µM | 29.1 µM | 19 µM | 33.1 µM | 17.1 µM | 38.8 µM | 15.2 µM | 30.3 µM | 16.2 µM | 30.7 µM | 17.6 µM | 32.9 µM
CO/C(=N\N=C\c1cccc(C(F)(F)F)c1)c1ccncc1 | 27.3 µM | > 100 µM | – | 77.3 | 10.8 µM | > 100 µM | – | 42.6 µM | – | 84.1 µM | – | > 100 µM | 17.4 µM | > 100 µM | – | > 100 µM | 14.2 µM | 54.6 µM | – | > 100 µM
Cc1ccc2nc(N/N=C/c3cccc(C)n3)cc(C)c2c1 | – | 31.4 µM | – | 35.7 | – | 36 µM | – | 43.2 µM | – | 30 µM | – | 28.5 µM | – | 49.5 µM | – | 33.2 µM | – | 44.8 µM | – | 29.8 µM
O=C(NC1(C(=O)O)CC1c1ccccc1)c1ccccc1 (centres undefined) | – | > 100 µM | – | > 100 | – | > 100 µM | – | > 100 µM | – | > 100 µM | – | > 100 µM | – | > 100 µM | – | > 100 µM | – | > 100 µM | – | > 100 µM
COc1cc(/C=C2\C(=O)Nc3ccccc32)cc(OC)c1OC | 26.4 µM | > 100 µM | 18.8 | > 100 | 11.4 µM | 78.1 µM | 17.9 µM | 68.3 µM | 25.4 µM | > 100 µM | 29.2 µM | 76.2 µM | 25 µM | > 100 µM | 41.8 µM | > 100 µM | 27.1 µM | > 100 µM | 14.4 µM | > 100 µM
O=[N+]([O-])/C=C/c1ccc([N+](=O)[O-])cc1 | 2.08 µM | 4.16 µM | 14.1 | 31.8 | 2.71 µM | 8.73 µM | 2.07 µM | 5.2 µM | 1.84 µM | 3.28 µM | 4.47 µM | 15.5 µM | 3.68 µM | 15.1 µM | 2.74 µM | 7.57 µM | 3.53 µM | 14.9 µM | 2.09 µM | 6.15 µM
Cc1ccc2[nH]c(C(=O)NN3C(=O)C(C)SC34CCCCC4C)c(-c3ccccc3)c2c1 (centres undefined) | 17.3 µM | 36.6 µM | 24.5 | 61.9 | 17.4 µM | 34.9 µM | 24.7 µM | 53.5 µM | 14.4 µM | 31.7 µM | 20.3 µM | 40.3 µM | 20.9 µM | 43.2 µM | 19.4 µM | 38.8 µM | 27 µM | 77.5 µM | 13.4 µM | 28.3 µM
